Common to all, as to format: cell-based, human
The test system of assay [1] is HCT116 cells. As to the kind of experiment: Mitotic arrest assay on HCT116 cells (phospho-histone H3 Ser10). The note with it: Homo sapiens, HCT-116, HCT116 cells; lowest active dose; read-out: Mitotic arrest HCT116 LAD (converted). In a few lines: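 Seeded overnight, then compound-treated 6 h at 37 °C (≤0.1% DMSO); fixed, stained with Alexa Fluor 488 anti-phospho-H3 (Ser10) plus Hoechst 33342, imaged on InCell Analyzer 1000. Blank-subtracted signal divided by SD (sigma), triplicate; value is lowest dose giving sigma >5 (LAD).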

Assay [2] relates to HCT116 cells. As to the kind of experiment: Antiproliferative activity, Alamar Blue assay, HCT116 cells. The note with it: Homo sapiens, HCT-116, HCT116 cells, Alamar Blue; read-out: HCT116 antiproliferative activity pIC50 (converted). Summed up: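 HCT116 cells seeded, adhered 24 h, then exposed to compound for 4 days; Alamar Blue (resazurin) added for 4 h at 37 °C, fluorescence read at 540/590 nm. Viability as % of untreated control, triplicate wells; IC50 by probit analysis, reported as pIC50.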

The test system of another assay is PC-3 cells. As to the kind of experiment: Antiproliferative activity, Alamar Blue assay, PC-3 cells. The settings on record: Homo sapiens, PC-3, PC3 cells, Alamar Blue; read-out: PC3 antiproliferative activity pIC50 (converted). Summed up: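 PC-3 cells seeded at 4.5×10^3 cells/ml, left to adhere 24 hr, then exposed to compound for 4 days. Resazurin (Alamar Blue) added for a further 24 hrs at 37° C; fluorescence read at 540/590 nm. Viability as % of untreated control, mean of 3 wells; IC50 by probit analysis, reported as pIC50.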
For orientation: Alamar Blue is a resazurin reagent that responds to reducing activity.

Each structure is given as a SMILES string.

Turning to `CCc1cc2ccc(C(C)(C#N)Cc3cccc(N(C)CCc4ccccc4)n3)cc2[nH]c1=O.Cl` (stereo not drawn) [Compound 220], the minimal effective concentration in the assay with HCT116 cells [1] was 3 µM. The IC50 in the assay with HCT116 cells [2] was 2000 nM; in the assay on PC-3 cells, 7940 nM.
On the same counts, the results for `CCc1cc2c(OC)cc(C(C)(C#N)Cc3nc(OC)cc(OC)n3)cc2[nH]c1=O` (stereo not drawn) [Compound 229] are 3 µM, 2510 nM and 5010 nM.
Taken in the same sequence, the figures for `CCc1cc2ccc(C(C)(C#N)CN3CCN(c4ccccn4)CC3)cc2[nH]c1=O` (stereo not drawn) [Compound 233] were 1 µM, 1000 nM and 2000 nM.
Taken in the same sequence, the figures for `Cc1nc(-c2ccccc2)sc1CC(C)(C#N)c1ccc2cc(C)c(=O)[nH]c2c1` (stereo not drawn) [Compound 235] were 0.3 µM, 1580 nM and 1580 nM.
In the case of `CCc1cc2ccc(C(C)(C#N)Cc3cccc4c3CCN4)cc2[nH]c1=O` (stereo not drawn) [Compound 237], the minimal effective concentration with HCT116 cells [1] was 1 µM. Further, the values for the IC50 in the assay with HCT116 cells [2] and in the assay with PC-3 cells were 2510 nM and 6310 nM, respectively.
With `CCc1cc2ccc(C(C)(C#N)Cc3cccc(C(=O)OC(C)C)c3)cc2[nH]c1=O` (stereo not drawn) [Compound 255], the minimal effective concentration in the assay with HCT116 cells [1] was 0.1 µM. In addition, the IC50 with HCT116 cells [2] is 158 nM; in the assay on PC-3 cells it was 251 nM.
With `Cc1cc2ccc(C(C)(C#N)Cc3cccc(I)c3)cc2[nH]c1=O` (stereo not drawn) [Compound 256], the minimal effective concentration in the assay on HCT116 cells [1] was 0.1 µM. The IC50 in the assay on HCT116 cells [2] was 398 nM; in the assay on PC-3 cells it was 1000 nM.
Turning to `CCc1cc2ccc(C(C)(C#N)Cc3cccc(NC)c3)cc2[nH]c1=O` (stereo not drawn) [Compound 257], the minimal effective concentration with HCT116 cells [1] is 0.3 µM. For the same compound, the IC50 is 631 nM in the assay with HCT116 cells [2] and 1580 nM in the assay with PC-3 cells.
Taken in the same sequence, the figures for `CCc1cc2ccc(C(C)(C#N)Cc3cc(Br)cc(N(C)C)c3)cc2[nH]c1=O` (stereo not drawn) [Compound 260] were 0.1 µM, 158 nM and 200 nM.
Turning to `Cc1cc2ccc(C(C)(C#N)Cc3cccc(OCC4CCOCC4)c3)cc2[nH]c1=O` (stereo not drawn) [Compound 261], the minimal effective concentration with HCT116 cells [1] is 1 µM. Besides, the results for the IC50 with HCT116 cells [2] and in the assay on PC-3 cells were 5010 nM and 6310 nM, respectively.
Turning to `CCc1cc2ccc(C(C)(C#N)Cc3cc(F)ccc3F)cc2[nH]c1=O` (stereo not drawn) [Compound 280], the minimal effective concentration in the assay on HCT116 cells [1] was 0.3 µM. Further, the IC50 in the assay on HCT116 cells [2] was 794 nM; with PC-3 cells, 631 nM.
With `CCc1cc2ccc(C(C)(C#N)Cc3ccc(F)c(F)c3)cc2[nH]c1=O` (stereo not drawn) [Compound 281], the minimal effective concentration with HCT116 cells [1] is 1 µM. Besides, the IC50 in the assay with HCT116 cells [2] is 2000 nM; in the assay with PC-3 cells it was 1580 nM.
For the compound `CCc1cc2ccc(C(C)(C#N)Cc3cc(C(F)(F)F)ccc3F)cc2[nH]c1=O` (stereo not drawn) [Compound 283], the minimal effective concentration with HCT116 cells [1] is 0.3 µM. Besides, the IC50 with HCT116 cells [2] was 794 nM; in the assay with PC-3 cells it was 2000 nM.
Taken in the same sequence, the figures for `CCOc1cccc(CC(C)(C#N)c2ccc3cc(CC)c(=O)[nH]c3c2)c1` (stereo not drawn) [Compound 285] were 0.3 µM, 794 nM and 1580 nM.
For the compound `CCc1cc2ccc(C(C)(C#N)Cc3cccc(OC)c3F)cc2[nH]c1=O` (stereo not drawn) [Compound 286], in the assay with HCT116 cells [1], the minimal effective concentration was 1 µM. The IC50 with HCT116 cells [2] was 5010 nM; with PC-3 cells, 2000 nM.
On to `CCc1cc2ccc(C(C)(C#N)Cc3cc(C(C)C)ccc3OC)cc2[nH]c1=O` (stereo not drawn) [Compound 288], for which the minimal effective concentration with HCT116 cells [1] is 1 µM. For the same compound, the IC50 was 10000 nM in the assay with HCT116 cells [2] and 2000 nM in the assay with PC-3 cells.
On the same counts, the results for `CCc1cc2ccc(C(C)(C#N)Cc3cc(OC)c(OC)c(OC)c3)cc2[nH]c1=O` (stereo not drawn) [Compound 289] are 0.1 µM, 126 nM and 316 nM.
On the same counts, the results for `CCc1cc2ccc(C(C)(C#N)CN(C)Cc3ccc(C#N)cc3)cc2[nH]c1=O` (stereo not drawn) [Compound 300] are 0.3 µM, 631 nM and 501 nM.
As to `CCc1cc2ccc(C(C)(C#N)CNCc3ccc(C#N)cc3)cc2[nH]c1=O` (stereo not drawn) [Compound 302], in the assay on HCT116 cells [1], the minimal effective concentration was 1 µM. Further, the IC50 with HCT116 cells [2] and with PC-3 cells was 5010 nM throughout.
Regarding `Cc1cc2ccc(C(C)(C#N)Cc3cccc(Oc4ccccc4)c3)cc2[nH]c1=O` (stereo not drawn) [Compound 305], the minimal effective concentration in the assay with HCT116 cells [1] is 0.3 µM. The values for the IC50 with HCT116 cells [2] and in the assay on PC-3 cells were 794 nM and 3160 nM, respectively.
`CCc1cc2ccc(C(C)(C#N)Cc3nc(C#N)cc(OC)n3)cc2[nH]c1=O` (stereo not drawn) [Compound 313]: the minimal effective concentration in the assay on HCT116 cells [1] is 0.3 µM. For the same compound, the IC50 in the assay on HCT116 cells [2] is 200 nM; in the assay with PC-3 cells, 251 nM.
With `CCc1cc2ccc(C(C)(C#N)Cc3cc(N(C)C)nc(C#N)n3)cc2[nH]c1=O` (stereo not drawn) [Compound 317], the minimal effective concentration with HCT116 cells [1] was 1 µM. In addition, the IC50 in the assay on HCT116 cells [2] and in the assay on PC-3 cells was 5010 nM in each case.
Take `CCc1cc2ccc(C(C)(C#N)Cc3nc(C#N)cc(N(C)C)n3)cc2[nH]c1=O` (stereo not drawn) [Compound 318]: the minimal effective concentration with HCT116 cells [1] was 0.3 µM. Moreover, the IC50 with HCT116 cells [2] and in the assay on PC-3 cells was 631 nM each time.
As to `CCc1cc2ccc(C(C)(C#N)Cc3cc(C#N)nc(C)n3)cc2[nH]c1=O` (stereo not drawn) [Compound 319], in the assay with HCT116 cells [1], the minimal effective concentration was 0.3 µM. The results for the IC50 in the assay on HCT116 cells [2] and with PC-3 cells were 2510 nM and 3980 nM, respectively.
As for `CCc1cc2ccc(C(C)(C#N)Cc3cc(N(C)C)nc(N(C)C)n3)cc2[nH]c1=O` (stereo not drawn) [Compound 320], the minimal effective concentration in the assay on HCT116 cells [1] was 0.3 µM. The IC50 was 398 nM in the assay with HCT116 cells [2] and 631 nM in the assay on PC-3 cells.
As to `CCc1cc2ccc(C(C)(C#N)Cc3cc(N(C)C)nc(C)n3)cc2[nH]c1=O` (stereo not drawn) [Compound 322], the minimal effective concentration with HCT116 cells [1] is 1 µM. In addition, the IC50 in the assay on HCT116 cells [2] is 2000 nM; with PC-3 cells it was 2510 nM.
On to `CCc1cc2ccc(C(C)(C#N)Cc3cc(Cl)nc(N(C)C)c3)cc2[nH]c1=O` (stereo not drawn) [Compound 323], for which the minimal effective concentration with HCT116 cells [1] is 0.3 µM. Moreover, the IC50 with HCT116 cells [2] is 631 nM; in the assay with PC-3 cells it was 1000 nM.
Taken in the same sequence, the figures for `CCc1cc2ccc(C(C)(C#N)Cc3cccc(NC)n3)cc2[nH]c1=O` (stereo not drawn) [Compound 339] were 1 µM, 2000 nM and 3160 nM.
Taken in the same sequence, the figures for `CCc1cc2ccc(C(C)(C#N)Cc3cc(Cl)nc(OC)c3)cc2[nH]c1=O` (stereo not drawn) [Compound 351] were 0.1 µM, 398 nM and 501 nM.
Consider `CCc1cc2ccc(C(C)(C#N)Cc3cc(N(C)C)nc(OC)n3)cc2[nH]c1=O` (stereo not drawn) [Compound 354], for which the minimal effective concentration with HCT116 cells [1] was 1 µM. The IC50 is 3160 nM in the assay with HCT116 cells [2] and 6310 nM with PC-3 cells.
As for `CCc1cc2ccc(C(C)(C#N)Cc3nc(OC)cc(N(C)C)n3)cc2[nH]c1=O` (stereo not drawn) [Compound 355], in the assay with HCT116 cells [1], the minimal effective concentration was 0.1 µM. For the same compound, the IC50 was 200 nM with HCT116 cells [2] and 398 nM in the assay with PC-3 cells.
On the same counts, the results for `CCc1cc2ccc(C(C)(C#N)Cc3cc(Cl)nc(C)n3)cc2[nH]c1=O` (stereo not drawn) [Compound 365] are 0.3 µM, 631 nM and 631 nM.
Taken in the same sequence, the figures for `CCc1cc2ccc(C(C)(C#N)CN3CCC(c4ccccc4)CC3)cc2[nH]c1=O` (stereo not drawn) [Compound 375] were 0.3 µM, 2000 nM and 1000 nM.

The values are drawn from patent publication US8778966B2, “Quinolinone derivatives as PARP and tank inhibitors” (Janssen Pharmaceutica, NV, priority 2007, dated 2014).
